Residues, ends and D or L forms follow the SMILES beside them.
Tests used:
recombinant MMP-2 = target: T1, recombinant MMP-2 (Homo sapiens, UniProt P08253); test: MMP-2 Inhibitor Screening Assay Kit (colorimetric); format: biochemical
T1 construct: purchased ab139446
T1 sequence (P08253 110-660): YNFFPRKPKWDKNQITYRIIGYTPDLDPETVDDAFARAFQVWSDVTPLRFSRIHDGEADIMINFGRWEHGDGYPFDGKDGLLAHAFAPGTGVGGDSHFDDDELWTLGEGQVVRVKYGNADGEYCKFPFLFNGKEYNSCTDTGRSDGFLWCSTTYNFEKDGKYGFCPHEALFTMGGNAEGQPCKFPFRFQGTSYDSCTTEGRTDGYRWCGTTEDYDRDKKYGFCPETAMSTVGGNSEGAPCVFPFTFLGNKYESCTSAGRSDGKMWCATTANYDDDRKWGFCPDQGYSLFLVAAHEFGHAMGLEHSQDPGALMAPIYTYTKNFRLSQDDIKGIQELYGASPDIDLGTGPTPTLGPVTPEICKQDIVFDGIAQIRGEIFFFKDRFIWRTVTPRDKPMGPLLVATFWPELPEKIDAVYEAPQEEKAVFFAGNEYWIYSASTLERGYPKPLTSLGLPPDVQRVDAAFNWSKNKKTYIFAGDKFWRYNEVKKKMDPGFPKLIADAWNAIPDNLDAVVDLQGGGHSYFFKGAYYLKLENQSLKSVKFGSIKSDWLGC
Experimental: MMP-2 is an important target for inhibitor screening due to its involvement in cancer growth, angiogenesis, and metastasis. The MMP-2 screening assay was carried out with a commercially available MMP-2 Inhibitor Screening Assay Kit (Colorimetric, Catalog: ab139446) based on the manufacturers protocol. This assay is based on quantification of recombinant MMP-2 activity using a colorimetric assay (MMP-2 degrades a chromogenic substrate). The assay provides NNGH (N-isobutyl-N-(4-methoxyphenylsulfonyl) glycyl hydroxamic acid), a small molecule inhibitor, as a positive control (NNGH). […] Each determination was run in duplicate.
% Inhibition rate=(Vinhibitor/Vcontrol)×100
Briefly, MMP Substrate and MMP Inhibitor were warmed to room temperature to thaw DMSO. MMP Inhibitor (NNGH), MMP-2 substrate and MMP-2 enzyme were diluted with assay buffer to required concentration. 20 μL of MMP-2 enzyme and MMP-2 inhibitor (peptides, Chlorotoxin and NNGH) was added, then 50 μL of assay buffer was added and the reaction mixture incubated at 37° C. for 1 h. After incubation, 10 μL of MMP Substrate was added to start reaction. The reactions were continuously read at 412 nm in a microplate reader. Data was recorded at 1 min. time intervals for 10 to 20 min. The data as was plotted as optical density (OD) versus time for each sample. The reaction velocity (V) was obtained in OD/min: determine the slope of a line fit to the linear portion of the data plot using an appropriate routine. Then using the equation above the inhibitor % activity remaining was calculated. The control was without inhibitor.

MMP-2 mRNA = test: Real time RT-PCR, MMP-2 mRNA expression; format: cell-based, human
From the text: The real-time reverse transcription polymerase chain reaction (RT-PCR) uses fluorescent reporter molecules to monitor the production of amplification products during each cycle of the PCR reaction. This combines the nucleic acid amplification and detection steps into one homogeneous assay and use of appropriate chemistries and data analysis eliminates the need for Southern blotting or DNA sequencing for amplicon identification. Its simplicity, specificity and sensitivity, together with its potential for high throughput and the ongoing introduction of new chemistries, more reliable instrumentation and improved protocols, has made real-time RT-PCR the benchmark technology for the detection and/or comparison of RNA levels.’
In order to detect and quantify the expression of specific genes at mRNA level, real-time reverse transcriptase polymerase chain reaction (Real time RT-PCR) was performed. Total RNA of samples was isolated and purified using the PureLink® RNA Mini Kit (Life technologies). The concentration of total RNA was detected by NanoDrop 2000 Spectrophotometer (Thermo Scientific). The total RNA (2000 ng) was reverse transcribed using the High-Capacity cDNA Reverse Transcription Kit (Applied Biosystems™).
The primers of target genes were TaqMan™ Gene Expression Assay for human PLAU (Hs01547054_m1), MMP-2 (Hs01548727_m1), MMP-9 (Hs00957562_m1), Snail-1 (Hs00195591_m1), Snail-2 (Hs00161904_m1), N-cadherin (Hs00983056_m1) and Twist (Hs01675818_s1). Relative quantification was done by reference to 18S ribosomal RNA (18S rRNA) and analysed using the comparative critical threshold (Ct) method
The mRNA expression of MMPs was measured using qRT-PCR. This was tested three independent times; the results are shown in Tables 9, 10 and 11 for U251, U87 cells and O81024 cells respectively. Results are reported as percent of the control cells (no treatment). Both MMP-2 and uPA were decreased in U251 by SEQ ID NO.1.

Structure (SMILES): CC(C)C[C@@H]1NC(=O)[C@H](C)NC(=O)[C@@H](NC(=O)[C@@H]2CCCN2C(=O)[C@@H](N)CC(C)C)CSSC(C)(C)CNC(=O)CC[C@@H](C(=O)N[C@@H](CCCNC(=N)N)C(N)=O)NC(=O)[C@H](CC(=O)O)NC(=O)[C@H](CC(N)=O)NC1=O [SEQ ID NO: 1, Leu-Pro-c(SSA*-Ala-Leu-Asn-Asp-Glu)-Arg-NH2] (HELM PEPTIDE1{L.P.C.A.L.N.D.E.R.[am]}|CHEM1{[CC(C)(CN[*:2])S[*:1]]}$PEPTIDE1,CHEM1,3:R3-1:R1|PEPTIDE1,CHEM1,8:R3-1:R2$$$V2.0; N-terminus assumed)
- remaining activity at 1 µM (recombinant MMP-2; 1 μM, 1 h preincubation at 37° C., lower value = higher inhibitory activity, read-out: % inhibition (Vinhibitor/Vcontrol ×100)): 81%
- remaining activity at 10 µM (recombinant MMP-2; 10 μM, lower value = higher inhibitory activity, read-out: % inhibition (Vinhibitor/Vcontrol ×100)): 75.2%
- remaining activity at 100 µM (recombinant MMP-2; 100 μM, lower value = higher inhibitory activity, read-out: % inhibition (Vinhibitor/Vcontrol ×100)): 66.9%
- inhibition of MMP-2 activity (in words) (recombinant MMP-2; 1 to 100 μM): dose dependent ability to inhibit MMP-2 activity
- mRNA expression, MMP-2 (MMP-2 mRNA; 081024 cells, baseline expression level = 1): 0.91
- mRNA expression, MMP-2 (MMP-2 mRNA; U87 cells, baseline expression level = 1): 0.84
- mRNA expression, MMP-2 (MMP-2 mRNA; U251 cells, relative to control (no treatment), listed as SEQ ID NO. 1): 0.72
- mRNA expression, MMP-2 (MMP-2 mRNA; U251 cells, relative to control (no treatment), listed as SEQ ID NO.1): decreased

— US20240059740A1, “CYCLIC PEPTIDES AND USES THEREOF” (PRE[…] INC., priority 2020, published 2024)
